In US8389523B2, “Substituted quinoxaline and an agrochemical composition thereof” (Kumiai Chemical Industry Co., Ltd., priority 2007, dated 2013):

What was measured:
Type in all cases: in vivo
Set-up in all cases: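 grade 0 to 5 of growth suppression where 5 is 90% or more and 0 below 10%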
[1] = system: Echinochloa oryzicola Vasing; assay: Herbicidal effects in paddy field soil treatment (Test Example 1); details: paddy field soil treatment; 1000 g of the active ingredient per hectare; wettable powder added dropwise on water surface; 21st day after treatment
Protocol: (§1) Test for Herbicidal Effects in Paddy Field Soil Treatment
(§2) A 100-cm^2 plastic pot was filled with paddy field soil. After puddling and leveling, seeds of Echinochloa oryzicola Vasing, Monochoria vaginalis (Burm. f.) Presl var. plantaginea (Roxb.) Solms-Laub., and Scirpus juncoides Roxb. var. ohwianus. T. Koyama were sowed, and the soil was waterlogged to a water depth of 3 cm. On the next day, a wettable powder formulation prepared according to Preparation Example 1 was diluted with water, and was added dropwise on the water surface. The amount of application was an amount equivalent to 1000 g of the active ingredient per hectare. Thereafter, the plants were grown in a greenhouse, and on the 21st day after the treatment, the herbicidal effects were investigated according to the criteria described in Table 138.

[2] = system: Monochoria vaginalis (Burm. f.) Presl var. plantaginea (Roxb.) Solms-Laub.; assay: as above; details: paddy field soil treatment; 1000 g of the active ingredient per hectare; wettable powder added dropwise on water surface; 21st day after treatment
Protocol: as §1, §2

[3] = system: Scirpus juncoides Roxb. var. ohwianus. T. Koyama; assay: as above; details: paddy field soil treatment; 1000 g of the active ingredient per hectare; wettable powder added dropwise on water surface; 21st day after treatment
Protocol: as §1, §2

[4] = system: Abutilon theophrasti medicus; assay: Herbicidal effects in upland field foliar treatment (Test Example 3); details: 1000 g active ingredient per hectare, 14th day after treatment, criteria of Table 138
Protocol: (§3) Test Example 3 Test on Herbicidal Effects in Upland Field Foliar Treatment A 80-cm^2 plastic pot was filled with upland field soil. Seeds of Echinochloa crus-galli (L.) P. Beauv. var. crus-galli, Abutilon theophrasti medicus and Amaranthus viridis L. were sowed, and the plants were grown for two weeks in a greenhouse. A wettable powder formulation prepared according to Preparation Example 1 was diluted with water, and was sprayed with a small sprayer to perform foliar application over the entirety of plants from the upper side, in an amount equivalent to 1000 liters per hectare, such that 1000 g of the active ingredient per hectare was applied. Thereafter, the plants were grown in a greenhouse, and on the 14th day after the treatment, the herbicidal effects were investigated according to the criteria described in the Table 138 shown above.

[5] = system: Amaranthus viridis L.; assay: as above; details: 1000 g active ingredient per hectare, 14th day after treatment, criteria of Table 138
Protocol: as §3

[6] = system: Echinochloa crus-galli (L.) P. Beauv. var. crus-galli; assay: as above; details: 1000 g active ingredient per hectare, 14th day after treatment, criteria of Table 138
Protocol: as §3

[7] = system: Abutilon theophrasti medicus; assay: Herbicidal effects in upland field soil treatment (Test Example 2); details: 1000 g active ingredient per hectare, 21st day after treatment, criteria of Table 138
Protocol: (§4) Test Example 2 Test on Herbicidal Effects in Upland Field Soil Treatment A 80-cm^2 plastic pot was filled with upland field soil. Seeds of Abutilon theophrasti medicus and Amaranthus viridis L. were sowed, and soil was covered. A wettable powder formulation prepared according to Preparation Example 1 was diluted with water, and was uniformly sprayed on the soil surface with a small sprayer, in an amount equivalent to 1000 liters per hectare, such that 1000 g of the active ingredient per hectare was applied. Thereafter, the plants were grown in a greenhouse, and on the 21st day after the treatment, the herbicidal effects were investigated according to the criteria described in the Table 138 shown above.

[8] = system: Amaranthus viridis L.; assay: as above; details: 1000 g active ingredient per hectare, 21st day after treatment, criteria of Table 138
Protocol: as §4

CCCCCCn1c(=O)c(C(=O)C2=C(O)CCCC2=O)nc2ccccc21 [Compound I-22]
Herbicidal effects index, Echinochloa oryzicola Vasing [1]: 5 | Herbicidal effects index, Monochoria vaginalis (Burm. f.) Presl var. plantaginea (Roxb.) Solms-Laub. [2]: 5 | Herbicidal effects index, Scirpus juncoides Roxb. var. ohwianus. T. Koyama [3]: 5 | herbicidal effect (index) on Abutilon theophrasti medicus [4]: 5 | herbicidal effect (index) on Amaranthus viridis L. [5]: 5 | herbicidal effect (index) on Echinochloa crus-galli (L.) P. Beauv. var. crus-galli [6]: 4

CN(C)C(=O)Cn1c(=O)c(C(=O)C2=C(O)CCCC2=O)nc2ccccc21 [Compound I-100]
herbicidal effect (index) on Abutilon theophrasti medicus [4]: 4 | herbicidal effect (index) on Amaranthus viridis L. [5]: 5 | herbicidal effect (index) on Echinochloa crus-galli (L.) P. Beauv. var. crus-galli [6]: 5

O=C1CCCC(O)=C1C(=O)c1nc2ccccc2n(C2CCSC2)c1=O (stereo not drawn) [I-136]
herbicidal effect (index) on Abutilon theophrasti medicus [4]: 5 | herbicidal effect (index) on Amaranthus viridis L. [5]: 5 | herbicidal effect (index) on Echinochloa crus-galli (L.) P. Beauv. var. crus-galli [6]: 4

CSc1ccc2nc(C(=O)C3=C(O)CCCC3=O)c(=O)n(C)c2c1 [I-243]
herbicidal effect (index) on Abutilon theophrasti medicus [4]: 5 | herbicidal effect (index) on Amaranthus viridis L. [5]: 5 | herbicidal effect (index) on Echinochloa crus-galli (L.) P. Beauv. var. crus-galli [6]: 5

Cn1c(=O)c(C(=O)C2=C(O)CCCC2=O)nc2ccc(S(C)(=O)=O)cc21 [I-247]
herbicidal effect (index) on Abutilon theophrasti medicus [4]: 5 | herbicidal effect (index) on Amaranthus viridis L. [5]: 5 | herbicidal effect (index) on Echinochloa crus-galli (L.) P. Beauv. var. crus-galli [6]: 4

COc1ccc(-n2c(=O)c(C(=O)C3=C(O)CCCC3=O)nc3ccccc32)c(F)c1 [II-174]
Herbicidal effects index, Echinochloa oryzicola Vasing [1]: 5 | Herbicidal effects index, Monochoria vaginalis (Burm. f.) Presl var. plantaginea (Roxb.) Solms-Laub. [2]: 5 | Herbicidal effects index, Scirpus juncoides Roxb. var. ohwianus. T. Koyama [3]: 5 | herbicidal effect (index) on Abutilon theophrasti medicus [7]: 4 | herbicidal effect (index) on Amaranthus viridis L. [8]: 5

COc1ccc(-n2c(=O)c(C(=O)C3=C(O)CCCC3=O)nc3ccccc32)cc1C [II-180]
Herbicidal effects index, Echinochloa oryzicola Vasing [1]: 5 | Herbicidal effects index, Monochoria vaginalis (Burm. f.) Presl var. plantaginea (Roxb.) Solms-Laub. [2]: 5 | Herbicidal effects index, Scirpus juncoides Roxb. var. ohwianus. T. Koyama [3]: 5 | herbicidal effect (index) on Abutilon theophrasti medicus [7]: 4 | herbicidal effect (index) on Amaranthus viridis L. [8]: 5

COc1ccc(-n2c(=O)c(C(=O)C3=C(O)CCCC3=O)nc3c(F)cccc32)cc1 [II-186, 5-fluoro-3-(2-hydroxy-6-oxo-1-cyclohexenecarbonyl)-1-(4-methoxyphenyl)-quinoxalin-2(1H)-one]
Herbicidal effects index, Echinochloa oryzicola Vasing [1]: 4 | Herbicidal effects index, Monochoria vaginalis (Burm. f.) Presl var. plantaginea (Roxb.) Solms-Laub. [2]: 5 | Herbicidal effects index, Scirpus juncoides Roxb. var. ohwianus. T. Koyama [3]: 5 | herbicidal effect (index) on Abutilon theophrasti medicus [7]: 5 | herbicidal effect (index) on Amaranthus viridis L. [8]: 5

O=C1CCCC(O)=C1C(=O)c1nc2cccc(Cl)c2n(-c2ccccc2)c1=O [II-193]
Herbicidal effects index, Echinochloa oryzicola Vasing [1]: 5 | Herbicidal effects index, Monochoria vaginalis (Burm. f.) Presl var. plantaginea (Roxb.) Solms-Laub. [2]: 5 | Herbicidal effects index, Scirpus juncoides Roxb. var. ohwianus. T. Koyama [3]: 5 | herbicidal effect (index) on Abutilon theophrasti medicus [7]: 5 | herbicidal effect (index) on Amaranthus viridis L. [8]: 5

COc1ccc(-n2c(=O)c(C(=O)C3=C(O)CCCC3=O)nc3c(Cl)cccc32)cc1 [II-194, 5-chloro-3-(2-hydroxy-6-oxo-1-cyclohexenecarbonyl)-1-(4-methoxyphenyl)-quinoxalin-2(1H)-one]
Herbicidal effects index, Echinochloa oryzicola Vasing [1]: 4 | Herbicidal effects index, Monochoria vaginalis (Burm. f.) Presl var. plantaginea (Roxb.) Solms-Laub. [2]: 5 | Herbicidal effects index, Scirpus juncoides Roxb. var. ohwianus. T. Koyama [3]: 5 | herbicidal effect (index) on Abutilon theophrasti medicus [7]: 4 | herbicidal effect (index) on Amaranthus viridis L. [8]: 5

Cc1ccc(-n2c(=O)c(C(=O)C3=C(O)CCCC3=O)nc3ccccc32)cc1Cl [II-216]
Herbicidal effects index, Echinochloa oryzicola Vasing [1]: 5 | Herbicidal effects index, Monochoria vaginalis (Burm. f.) Presl var. plantaginea (Roxb.) Solms-Laub. [2]: 5 | Herbicidal effects index, Scirpus juncoides Roxb. var. ohwianus. T. Koyama [3]: 5 | herbicidal effect (index) on Abutilon theophrasti medicus [7]: 4 | herbicidal effect (index) on Amaranthus viridis L. [8]: 5

CC1CC(C)C(O)=C(C(=O)c2nc3ccccc3n(-c3ccc4c(c3)OCCO4)c2=O)C1=O (stereo not drawn) [II-229]
Herbicidal effects index, Echinochloa oryzicola Vasing [1]: 5 | Herbicidal effects index, Monochoria vaginalis (Burm. f.) Presl var. plantaginea (Roxb.) Solms-Laub. [2]: 5 | Herbicidal effects index, Scirpus juncoides Roxb. var. ohwianus. T. Koyama [3]: 5 | herbicidal effect (index) on Abutilon theophrasti medicus [7]: 4 | herbicidal effect (index) on Amaranthus viridis L. [8]: 5

CC1CC(C)(C)C(O)=C(C(=O)c2nc3ccccc3n(-c3ccc4c(c3)OCCO4)c2=O)C1=O (stereo not drawn) [II-230]
Herbicidal effects index, Echinochloa oryzicola Vasing [1]: 4 | Herbicidal effects index, Monochoria vaginalis (Burm. f.) Presl var. plantaginea (Roxb.) Solms-Laub. [2]: 5 | Herbicidal effects index, Scirpus juncoides Roxb. var. ohwianus. T. Koyama [3]: 5 | herbicidal effect (index) on Abutilon theophrasti medicus [7]: 4 | herbicidal effect (index) on Amaranthus viridis L. [8]: 5

O=C1CCCC(O)=C1C(=O)c1nc2ccccc2n(-c2ccc3c(c2)OCCCO3)c1=O [II-232]
Herbicidal effects index, Echinochloa oryzicola Vasing [1]: 4 | Herbicidal effects index, Monochoria vaginalis (Burm. f.) Presl var. plantaginea (Roxb.) Solms-Laub. [2]: 5 | Herbicidal effects index, Scirpus juncoides Roxb. var. ohwianus. T. Koyama [3]: 5 | herbicidal effect (index) on Abutilon theophrasti medicus [7]: 4 | herbicidal effect (index) on Amaranthus viridis L. [8]: 5

COc1c(F)cc(-n2c(=O)c(C(=O)C3=C(O)CCCC3=O)nc3c(F)cccc32)cc1F [II-235]
Herbicidal effects index, Echinochloa oryzicola Vasing [1]: 4 | Herbicidal effects index, Monochoria vaginalis (Burm. f.) Presl var. plantaginea (Roxb.) Solms-Laub. [2]: 5 | Herbicidal effects index, Scirpus juncoides Roxb. var. ohwianus. T. Koyama [3]: 5 | herbicidal effect (index) on Abutilon theophrasti medicus [7]: 4 | herbicidal effect (index) on Amaranthus viridis L. [8]: 5

O=C1CCCC(O)=C1C(=O)c1nc2c(F)cccc2n(-c2ccc3c(c2)OCCO3)c1=O [II-236]
Herbicidal effects index, Echinochloa oryzicola Vasing [1]: 4 | Herbicidal effects index, Monochoria vaginalis (Burm. f.) Presl var. plantaginea (Roxb.) Solms-Laub. [2]: 5 | Herbicidal effects index, Scirpus juncoides Roxb. var. ohwianus. T. Koyama [3]: 5 | herbicidal effect (index) on Abutilon theophrasti medicus [7]: 4 | herbicidal effect (index) on Amaranthus viridis L. [8]: 5

O=C1CCCC(O)=C1C(=O)c1nc2cc(F)ccc2n(-c2ccc3c(c2)OCCO3)c1=O [II-240]
Herbicidal effects index, Echinochloa oryzicola Vasing [1]: 4 | Herbicidal effects index, Monochoria vaginalis (Burm. f.) Presl var. plantaginea (Roxb.) Solms-Laub. [2]: 5 | Herbicidal effects index, Scirpus juncoides Roxb. var. ohwianus. T. Koyama [3]: 5 | herbicidal effect (index) on Abutilon theophrasti medicus [7]: 5 | herbicidal effect (index) on Amaranthus viridis L. [8]: 5

COc1ccc(-n2c(=O)c(C(=O)C3=C(O)CCCC3=O)nc3c(C)cccc32)cc1 [II-245]
Herbicidal effects index, Echinochloa oryzicola Vasing [1]: 5 | Herbicidal effects index, Monochoria vaginalis (Burm. f.) Presl var. plantaginea (Roxb.) Solms-Laub. [2]: 5 | Herbicidal effects index, Scirpus juncoides Roxb. var. ohwianus. T. Koyama [3]: 5 | herbicidal effect (index) on Abutilon theophrasti medicus [7]: 5 | herbicidal effect (index) on Amaranthus viridis L. [8]: 5

COc1ccc(-n2c(=O)c(C(=O)C3=C(O)CCCC3=O)nc3ccc(C)cc32)cc1 [II-247]
Herbicidal effects index, Echinochloa oryzicola Vasing [1]: 4 | Herbicidal effects index, Monochoria vaginalis (Burm. f.) Presl var. plantaginea (Roxb.) Solms-Laub. [2]: 5 | Herbicidal effects index, Scirpus juncoides Roxb. var. ohwianus. T. Koyama [3]: 5 | herbicidal effect (index) on Abutilon theophrasti medicus [7]: 5 | herbicidal effect (index) on Amaranthus viridis L. [8]: 5

COc1ccc(-n2c(=O)c(C(=O)C3=C(O)CCCC3=O)nc3c(F)cc(F)cc32)cc1 [II-259]
Herbicidal effects index, Echinochloa oryzicola Vasing [1]: 4 | Herbicidal effects index, Monochoria vaginalis (Burm. f.) Presl var. plantaginea (Roxb.) Solms-Laub. [2]: 5 | Herbicidal effects index, Scirpus juncoides Roxb. var. ohwianus. T. Koyama [3]: 5 | herbicidal effect (index) on Abutilon theophrasti medicus [7]: 5 | herbicidal effect (index) on Amaranthus viridis L. [8]: 5

COc1ccc(-n2c(=O)c(C(=O)C3=C(O)CCCC3=O)nc3c(Cl)cccc32)cc1F [II-301]
Herbicidal effects index, Echinochloa oryzicola Vasing [1]: 5 | Herbicidal effects index, Monochoria vaginalis (Burm. f.) Presl var. plantaginea (Roxb.) Solms-Laub. [2]: 5 | Herbicidal effects index, Scirpus juncoides Roxb. var. ohwianus. T. Koyama [3]: 5 | herbicidal effect (index) on Abutilon theophrasti medicus [7]: 5 | herbicidal effect (index) on Amaranthus viridis L. [8]: 5

COc1ccc2nc(C(=O)C3=C(O)CCCC3=O)c(=O)n(-c3ccc(C)cc3)c2c1 [II-306]
Herbicidal effects index, Echinochloa oryzicola Vasing [1]: 5 | Herbicidal effects index, Monochoria vaginalis (Burm. f.) Presl var. plantaginea (Roxb.) Solms-Laub. [2]: 5 | Herbicidal effects index, Scirpus juncoides Roxb. var. ohwianus. T. Koyama [3]: 5 | herbicidal effect (index) on Abutilon theophrasti medicus [7]: 5 | herbicidal effect (index) on Amaranthus viridis L. [8]: 5

CSCn1c(=O)c(C(=O)C2=C(O)CCCC2=O)nc2cccnc21 [III-70]
Herbicidal effects index, Echinochloa oryzicola Vasing [1]: 4 | Herbicidal effects index, Monochoria vaginalis (Burm. f.) Presl var. plantaginea (Roxb.) Solms-Laub. [2]: 5 | Herbicidal effects index, Scirpus juncoides Roxb. var. ohwianus. T. Koyama [3]: 5 | herbicidal effect (index) on Abutilon theophrasti medicus [7]: 5 | herbicidal effect (index) on Amaranthus viridis L. [8]: 5
